{"source": "paper PMC11337205", "about": "“Unraveling Interspecies Differences in the Phase I Hepatic Metabolism of Alternariol and Alternariol Monomethyl Ether: Closing Data Gaps for a Comprehensive Risk Assessment” (Chemical Research in Toxicology, 2024)", "key": {"[1]": {"conditions": "oral exposure, radiolabeled AOH, male NMRI mice; cited from earlier work"}, "[2]": {"assay": "Pattern of oxidative metabolites in porcine LMs by HR-MS", "format": "in vitro ADME, pig", "conditions": "porcine LMs incubated with AME", "experimental": "(§1) The kinetics of the phase I metabolism of AOH and AME was investigated by incubating human, rat (both 1 mg protein/mL), and porcine LMs (2 mg protein/mL) with 1, 10, 20, 50, and 100 μM AOH or 1, 10, 20, and 50 μM AME based on the protocol by Al-Subeihi et al.[34] The incubation solution contained a final concentration of 3 mM NADPH and 1 mM ascorbic acid in 200 mM Tris–HCl (pH 7.4). After preincubation (37 °C, 1 min, mixing at 250–300 rpm), the toxin stock was added in a 1:100 dilution, resulting in a total DMSO content of 1% and the desired toxin concentration. DMSO was selected for this assay because it is the least inhibitory of the solvents studied by Busby et al. on CYP1A1,[35] the primary enzyme involved in the hydroxylation of AOH and AME.[26] The well-established solubility of the test compounds in DMSO and DMSO-containing aqueous buffers facilitated laboratory work and ensured consistency with existing literature, thereby improving the comparability of results across studies, including those of Pfeiffer and colleagues.[25] In a preliminary investigation, incubation times of 5 and 10 min were chosen because they fall within the linear range of the transformation rate–time relationship, thereby ensuring initial rate conditions (Figure S1). When the selected incubation time (0–10 min) passed, one part of the sample was pipetted into two parts of ice-cold extraction solvent (acetonitrile–methanol, 1:1, v/v) for reaction termination. Subsequently, the samples were placed into the freezer (−20 °C) for at least an hour, centrifuged (15 min, 18,000g, 4 °C), and further diluted in methanol–water (3:7, v/v) prior to LC–MS measurements. In the solvent control, the toxin was substituted with DMSO in the incubation solution. Control incubations were performed without the cofactor NADPH or with heat-inactivated microsomes (98 °C, 10 min, mixing at 300 rpm).\nPooled high-resolution MS (HR-MS) samples were analyzed on a Vanquish UHPLC system (Thermo Fisher Scientific, Waltham, MA, USA) connected to a dual-pressure linear trap-quadrupole Orbitrap mass analyzer (Velos ETD, Thermo Fisher Scientific, Waltham, MA, USA). The heated ESI interface (source heater temperature: 400 °C) was operated in both positive and negative modes. The mobile and stationary phases were the same as those for the targeted analysis. The column compartment temperature was kept at 40 °C. A multistep gradient was applied at a flow rate of 0.4 mL/min and started with rinsing the column for 1 min at 10% eluent B. Then, the organic content was linearly raised to 100% until the 11th minute. Subsequently, the column was purged with 100% eluent B for two additional minutes. Finally, the initial eluent composition was reset between minutes 13 and 13.5, followed by a 2 min re-equilibration under these conditions, resulting in a total run time of 15.5 min. Data acquisition and evaluation were performed with the software Skyline (v. 21.1.0.146, MacCoss Lab, Department of Genome Sciences, University of Washington, Seattle, WA, USA), XCalibur (v. 2.2SP1.48), and Chromeleon (v. 7.2.6.; both Thermo Fisher Scientific, Waltham, MA, USA).\nAs no analytical standards are currently available for the hydroxy (OH) metabolites of AOH and AME, an Alternaria reference mixture containing 4-OH-AOH and 4-OH-AME was used to enable associating peaks with their respective phase I metabolites."}, "[3]": {"assay": "Phase I metabolism kinetics (parent toxin loss) in NADPH-fortified rat liver microsomes, LC-MS/MS", "format": "in vitro ADME, Sprague–Dawley rat", "conditions": "for microsomal CLint: Sprague-Dawley, rat, pH 7.4, rat LMs, read-out: CLint (intrinsic clearance)", "experimental": "(§2) Pooled human LMs and pooled Sprague–Dawley rat hepatic microsomes, both originating from male donors, were purchased from Sigma-Aldrich (St. Louis, MO, USA) and Gibco, Thermo Fisher Scientific (Waltham, MA, USA), respectively. Porcine LMs were prepared according to an in-house-developed protocol based on the publication of Knights et al.[32] The liver of an approximately four-month-old female “Large White” (or “German Edelschwein”) pig was obtained from a local slaughterhouse. After slaughtering, the liver was placed on ice for about an hour, kept in ice-cold 50 mM tris(hydroxymethyl)aminomethane hydrochloride (Tris–HCl) (pH 7.4) for an additional hour while being transported, and processed immediately.\nas §1\n(§3) The quantification of selected analytes using external calibration (MS parameters listed in Supporting Information Table S1) was conducted on a high-performance liquid chromatographic system (Dionex UltiMate 3000 UHPLC, Dionex Softron GmbH, Germering, Germany) coupled to a triple quadrupole mass spectrometer (TSQ Vantage, Thermo Fisher Scientific, Waltham, MA, USA), equipped with a heated electrospray ionization (ESI) interface. The applied analytical method is based on Puntscher et al.[28],[36] with slight modifications, which are specified below.\n(§4) In brief, the Ascentis Express C18 column (10 cm × 2.1 mm, 2.7 μm, Supelco, Munich, DE), equipped with the Phenomenex SecurityGuard (C18 Cartridges, 4 × 2.0 mm ID, Phenomenex Ltd. Deutschland, Aschaffenburg, Germany), served as the stationary phase. Eluent A was aqueous ammonium acetate (5 mM, pH adjusted to 8.6 with a 25% ammonia solution), and eluent B was methanol. During the first minute, the column was kept at 30% eluent B. Subsequently, the eluent B content was linearly raised to 100% within 6 min. Thereafter, the column was washed with 100% eluent B for 1.5 min. Lastly, the column was re-equilibrated at the initial conditions, reaching an overall run time of 10 min. The autosampler compartment was kept at 10 °C, while the column oven temperature was maintained at 30 °C. […]"}, "[4]": {"assay": "Phase I metabolism kinetics (parent toxin loss) in NADPH-fortified porcine liver microsomes, LC-MS/MS", "format": "in vitro ADME, pig", "conditions": "for microsomal CLint: Large White, pH 7.4, porcine LMs, read-out: CLint (intrinsic clearance)", "experimental": "as §2, §1, §3, §4"}, "[5]": {"assay": "Pattern of oxidative metabolites in human LMs by HR-MS", "format": "in vitro ADME", "conditions": "human LMs incubated with AME", "experimental": "as §1\nPooled high-resolution MS (HR-MS) samples were analyzed on a Vanquish UHPLC system (Thermo Fisher Scientific, Waltham, MA, USA) connected to a dual-pressure linear trap-quadrupole Orbitrap mass analyzer (Velos ETD, Thermo Fisher Scientific, Waltham, MA, USA). The heated ESI interface (source heater temperature: 400 °C) was operated in both positive and negative modes. The mobile and stationary phases were the same as those for the targeted analysis. The column compartment temperature was kept at 40 °C. A multistep gradient was applied at a flow rate of 0.4 mL/min and started with rinsing the column for 1 min at 10% eluent B. Then, the organic content was linearly raised to 100% until the 11th minute. Subsequently, the column was purged with 100% eluent B for two additional minutes. […]"}}}
{"smiles": "Cc1cc(O)cc2oc(=O)c3c(O)cc(O)cc3c12", "note": "[AOH, alternariol]", "values": [{"measurement": "bioavailability", "setting": "[1]", "value": "less than 10%"}, {"measurement": "relative abundance among phase I metabolites (in words)", "setting": "[2]", "value": "one of the main metabolites"}, {"measurement": "microsomal CLint", "setting": "[3]; male, liver microsomes, Michaelis–Menten model, ratio Vmax/Km", "value": 35.9, "unit": "µL/min/mg"}, {"measurement": "microsomal CLint", "setting": "[3]; male, liver microsomes, linear regression, lower concentration range", "value": 29.9, "unit": "µL/min/mg"}, {"measurement": "Km", "setting": "[3]; male, Sprague–Dawley, liver microsomes, pH 7.4, rat LMs 1 mg protein/mL, NADPH, within 10 min, Michaelis–Menten model, read-out: Km (Michaelis constant)", "value": 78.7, "unit": "µM"}, {"measurement": "Concentration decrease", "setting": "[3]; rat LMs, 1 µM toxin, 5 min", "value": 11, "unit": "%"}, {"measurement": "Concentration decrease", "setting": "[3]; rat LMs, 1 µM toxin, 10 min", "value": 19, "unit": "%"}, {"measurement": "Concentration decrease", "setting": "[3]; rat LMs, 10 µM toxin, 5 min", "value": 13, "unit": "%"}, {"measurement": "Concentration decrease", "setting": "[3]; rat LMs, 10 µM toxin, 10 min", "value": 27, "unit": "%"}, {"measurement": "Concentration decrease", "setting": "[3]; rat LMs, 20 µM toxin, 5 min", "value": 14, "unit": "%"}, {"measurement": "Concentration decrease", "setting": "[3]; rat LMs, 20 µM toxin, 10 min", "value": 28, "unit": "%"}, {"measurement": "Concentration decrease", "setting": "[3]; rat LMs, 50 µM toxin, 5 min", "value": 6, "unit": "%"}, {"measurement": "Concentration decrease", "setting": "[3]; rat LMs, 50 µM toxin, 10 min", "value": 9, "unit": "%"}, {"measurement": "Concentration decrease", "setting": "[3]; rat LMs, 100 µM toxin, 5 min", "value": 5, "unit": "%"}, {"measurement": "Concentration decrease", "setting": "[3]; rat LMs, 100 µM toxin, 10 min", "value": 12, "unit": "%"}, {"measurement": "Vmax (maximum transformation rate)", "setting": "[3]; rat LMs, within 10 min, Michaelis–Menten model", "value": 2830, "unit": "pmol/mg/min"}, {"measurement": "Km", "setting": "[4]; female, Large White (German Edelschwein), pig, liver microsomes, pH 7.4, porcine LMs 2 mg protein/mL, NADPH, within 10 min, Michaelis–Menten model, read-out: Km (Michaelis constant)", "value": 672, "unit": "µM"}, {"measurement": "microsomal CLint", "setting": "[4]; female, pig, liver microsomes, Michaelis–Menten model, ratio Vmax/Km", "value": 8.52, "unit": "µL/min/mg"}, {"measurement": "microsomal CLint", "setting": "[4]; female, pig, liver microsomes, linear regression, lower concentration range", "value": 6.56, "unit": "µL/min/mg"}, {"measurement": "Concentration decrease", "setting": "[4]; porcine LMs, 1 µM toxin, 5 min", "value": 20, "unit": "%"}, {"measurement": "Concentration decrease", "setting": "[4]; porcine LMs, 1 µM toxin, 10 min", "value": 47, "unit": "%"}, {"measurement": "Concentration decrease", "setting": "[4]; porcine LMs, 10 µM toxin, 5 min", "value": 6, "unit": "%"}, {"measurement": "Concentration decrease", "setting": "[4]; porcine LMs, 10 µM toxin, 10 min", "value": 16, "unit": "%"}, {"measurement": "Concentration decrease", "setting": "[4]; porcine LMs, 20 µM toxin, 5 min", "value": 2, "unit": "%"}, {"measurement": "Concentration decrease", "setting": "[4]; porcine LMs, 20 µM toxin, 10 min", "value": 15, "unit": "%"}, {"measurement": "Concentration decrease", "setting": "[4]; porcine LMs, 50 µM toxin, 5 min", "value": 11, "unit": "%"}, {"measurement": "Concentration decrease", "setting": "[4]; porcine LMs, 50 µM toxin, 10 min", "value": 14, "unit": "%"}, {"measurement": "Concentration decrease", "setting": "[4]; porcine LMs, 100 µM toxin, 5 min", "value": 12, "unit": "%"}, {"measurement": "Concentration decrease", "setting": "[4]; porcine LMs, 100 µM toxin, 10 min", "value": 14, "unit": "%"}, {"measurement": "Vmax (maximum transformation rate)", "setting": "[4]; porcine LMs, within 10 min, Michaelis–Menten model", "value": 5730, "unit": "pmol/mg/min"}, {"measurement": "relative abundance among phase I metabolites (in words)", "setting": "[5]", "value": "small amounts"}]}
